Several values for one entry are separate records, joined by “and”; a condition that tells them apart may be missing. Equal values may be shown once. Inconclusive results and toxic doses are left out. How the source made its calls: active means survival T/C of 150% or more; inactive means T/C below 125% in these data.
Test system: BDF1 mice, P388 leukemia ip, median survival T/C
Experiment: NCI In Vivo Anticancer Drug Screen. Data for tumor model P388 Leukemia (intraperitoneal) in B6D2F1 (BDF1) mice
Details: endpoint: median survival time, higher = longer survival
Summary of the method: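 Reported as T/C, where T is the survival measurement in dosed animals and C the same measurement in vehicle controls.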

[1] = dose: 100.0 mg/kg/injection, schedule: Q04DX003 (ip), vehicle: Klucel (hydroxypropylcellulose) (HPC)
[2] = dose: 200.0 mg/kg/injection, schedule: Q04DX003 (ip), vehicle: Klucel (hydroxypropylcellulose) (HPC)
[3] = dose: 50.0 mg/kg/injection, schedule: Q01DX009 (ip), vehicle: saline with Tween-80
[4] = dose: 100.0 mg/kg/injection, schedule: Q01DX009 (ip), vehicle: saline with Tween-80
[5] = dose: 200.0 mg/kg/injection, schedule: Q01DX009 (ip), vehicle: saline with Tween-80
[6] = dose: 100.0 mg/kg/injection, schedule: Q04DX003 (ip), vehicle: saline with Tween-80
[7] = dose: 200.0 mg/kg/injection, schedule: Q04DX003 (ip), vehicle: saline with Tween-80
[8] = dose: 400.0 mg/kg/injection, schedule: Q04DX003 (ip), vehicle: saline with Tween-80
[9] = dose: 400.0 mg/kg/injection, schedule: Q01DX009 (ip), vehicle: saline with Tween-80

Measured: T/C

O=C(NCCBr)Nc1cccc2c1Cc1ccccc1-2
inactive: [1] 100 % of control | [2] 100 % of control | dose: 400.0 mg/kg/injection, schedule: Q04DX003 (ip), vehicle: Klucel (hydroxypropylcellulose) (HPC) 95 % of control

OC(Cc1cccnc1)(c1ccccc1)c1ccc(Cl)cc1 (centres undefined)
inactive: [3] 105 % of control | [4] 100 % of control | [5] 96 % of control

O=Cc1ccc(OC(=O)Nc2ccccc2)cc1
inactive: [6] 113 % of control | [7] 122 % of control | [8] 86 % of control

COC(=O)C(N)CSCSC (centres undefined)
inactive: dose: 100.0 mg/kg/injection, schedule: Q04DX003 (ip), vehicle: saline 90 % of control | dose: 200.0 mg/kg/injection, schedule: Q04DX003 (ip), vehicle: saline 100 % of control | dose: 400.0 mg/kg/injection, schedule: Q04DX003 (ip), vehicle: saline 90 % of control

CC(C(=O)c1cccs1)C(O)(C(F)(F)F)C(F)(F)F (centres undefined)
inactive: [1] 91 % of control | [2] 91 % of control

CCN(CC)c1ccc(/C=C2/C=Cc3ccccc32)cc1
inactive: dose: 100.0 mg/kg/injection, schedule: Q04DX003 (ip), vehicle: saline sonified 95 % of control | dose: 200.0 mg/kg/injection, schedule: Q04DX003 (ip), vehicle: saline sonified 100 % of control | dose: 400.0 mg/kg/injection, schedule: Q04DX003 (ip), vehicle: saline sonified 100 % of control

CCC[S-].CCC[S-].[C-]#[O+].[C-]#[O+].[C-]#[O+].[C-]#[O+].[Rh].[Rh]
inactive: [6] 122 % of control | [5] 90 % of control | [7] 122 % of control | [9] 100 % of control | [8] 122 % of control

NNC(=O)c1cnccn1
inactive: dose: 40.0 mg/kg/injection, schedule: Q01DX010 (ip), vehicle: water 100 % of control | dose: 60.0 mg/kg/injection, schedule: Q01DX010 (ip), vehicle: water 100 % of control | dose: 80.0 mg/kg/injection, schedule: Q01DX010 (ip), vehicle: water 100 % of control and 109 % of control

O=C(/C=N/O)Nc1cc(Cl)ccc1Cl
inactive: [4] 95 % of control | [6] 100 % of control | [5] 90 % of control | [7] 100 % of control | [9] 90 % of control | [8] 100 % of control

CC12CCC(C)(O)C(CC3=C1CCc1ccccc13)C2=O (centres undefined)
inactive: dose: 75.0 mg/kg/injection, schedule: Q04DX003 (ip), vehicle: saline 100 % of control | dose: 150.0 mg/kg/injection, schedule: Q04DX003 (ip), vehicle: saline 91 % of control | dose: 300.0 mg/kg/injection, schedule: Q04DX003 (ip), vehicle: saline 95 % of control

CCN(CC)CC(=O)Nc1ccc(Cl)cc1C(O)c1ccccc1 (centres undefined)
inactive: dose: 50.0 mg/kg/injection, schedule: Q01DX009 (ip), vehicle: saline 103 % of control | dose: 100.0 mg/kg/injection, schedule: Q01DX009 (ip), vehicle: saline 97 % of control | dose: 200.0 mg/kg/injection, schedule: Q01DX009 (ip), vehicle: saline 100 % of control

O=Cc1ccc(C(=O)O)cc1
inactive: [6] 100 % of control | [7] 109 % of control | [8] 113 % of control

c1ccc(-c2csc3c4ccccc4c4ccccc4[n+]23)cc1
inactive: dose: 0.5 mg/kg/injection, schedule: Q01DX009 (ip), vehicle: saline 100 % of control | dose: 1.0 mg/kg/injection, schedule: Q01DX009 (ip), vehicle: saline 104 % of control | dose: 2.0 mg/kg/injection, schedule: Q01DX009 (ip), vehicle: saline 118 % of control | dose: 4.0 mg/kg/injection, schedule: Q01DX009 (ip), vehicle: saline 113 % of control | dose: 8.0 mg/kg/injection, schedule: Q01DX009 (ip), vehicle: saline 100 % of control

COC(=O)C1CC(=O)N(C)c2sc(C)c(C)c2C1=O (centres undefined)
inactive: dose: 25.0 mg/kg/injection, schedule: Q04DX003 (ip), vehicle: saline with Tween-80 107 % of control | [3] 111 % of control | dose: 50.0 mg/kg/injection, schedule: Q04DX003 (ip), vehicle: saline with Tween-80 92 % of control and 94 % of control | [4] 111 % of control | [6] 92 % of control | [5] 92 % of control | [7] 95 % of control and 104 % of control | [8] 100 % of control and 107 % of control | dose: 500.0 mg/kg/injection, schedule: Q04DX003 (ip), vehicle: saline with Tween-80 100 % of control

Reference: PubChem BioAssay AID328 (DTP/NCI, 2004)
